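Cells were grown in 96-well plates and exposed to each compound for 48 hours at five concentrations; endpoints were interpolated linearly between bracketing concentrations, or set to the highest concentration if not reached. TGI is the concentration that stops growth completely.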
Columns and labels:
Assay in all cases: NCI anticancer screen, dose series, 48 h
SNB-75 CNS = tested on: SNB-75 CNS
RXF 393 renal = tested on: RXF 393 renal
HCT-116 colon = tested on: HCT-116 colon
NCI-H460 lung = tested on: NCI-H460 lung
OVCAR-8 ovarian = tested on: OVCAR-8 ovarian
KM20L2 colon = tested on: KM20L2 colon
LOX IMVI melanoma = tested on: LOX IMVI melanoma
HOP-92 NSCLC = tested on: HOP-92 NSCLC
UACC-62 melanoma = tested on: UACC-62 melanoma
OVCAR-4 ovarian = tested on: OVCAR-4 ovarian
SK-MEL-28 melanoma = tested on: SK-MEL-28 melanoma
SK-OV-3 ovarian = tested on: SK-OV-3 ovarian
EKVX NSCLC = tested on: EKVX NSCLC
NCI-H522 lung = tested on: NCI-H522 lung
786-0 renal = tested on: 786-0 renal
HCT-15 colon = tested on: HCT-15 colon
SF-268 CNS = tested on: SF-268 CNS
UO-31 renal = tested on: UO-31 renal
HOP-62 NSCLC = tested on: HOP-62 NSCLC
DMS 273 small cell lung = tested on: DMS 273 small cell lung
TK-10 renal = tested on: TK-10 renal
SNB-19 CNS = tested on: SNB-19 CNS
SF-295 CNS = tested on: SF-295 CNS
COLO 205 colon = tested on: COLO 205 colon
HT29 colon = tested on: HT29 colon
MALME-3M melanoma = tested on: MALME-3M melanoma
CAKI-1 renal = tested on: CAKI-1 renal
DMS 114 small cell lung = tested on: DMS 114 small cell lung
XF 498 CNS = tested on: XF 498 CNS
SK-MEL-5 melanoma = tested on: SK-MEL-5 melanoma
MOLT-4 leukemia = tested on: MOLT-4 leukemia
A549 NSCLC = tested on: A549 NSCLC
DLD-1 colon = tested on: DLD-1 colon
RXF-631 renal = tested on: RXF-631 renal
A498 renal = tested on: A498 renal
OVCAR-3 ovarian = tested on: OVCAR-3 ovarian
U251 CNS = tested on: U251 CNS
M19-MEL melanoma = tested on: M19-MEL melanoma
ACHN renal = tested on: ACHN renal
HL-60(TB) leukemia = tested on: HL-60(TB) leukemia
HCC-2998 colon = tested on: HCC-2998 colon
UACC-257 melanoma = tested on: UACC-257 melanoma
K-562 leukemia = tested on: K-562 leukemia
NCI-H23 lung = tested on: NCI-H23 lung
SNB-78 CNS = tested on: SNB-78 CNS
KM12 colon = tested on: KM12 colon
SN12C renal = tested on: SN12C renal
LXFL 529 NSCLC = tested on: LXFL 529 NSCLC
SW-620 colon = tested on: SW-620 colon
RPMI-8226 leukemia = tested on: RPMI-8226 leukemia
CCRF-CEM leukemia = tested on: CCRF-CEM leukemia
NCI-H226 lung = tested on: NCI-H226 lung
M14 melanoma = tested on: M14 melanoma
IGROV1 ovarian = tested on: IGROV1 ovarian
SR leukemia = tested on: SR leukemia
SF-539 CNS = tested on: SF-539 CNS
OVCAR-5 ovarian = tested on: OVCAR-5 ovarian
BT-549 breast = tested on: BT-549 breast
HS 578T breast = tested on: HS 578T breast
MDA-MB-435 = tested on: MDA-MB-435
T-47D breast = tested on: T-47D breast
MDA-N = tested on: MDA-N
SK-MEL-2 melanoma = tested on: SK-MEL-2 melanoma
NCI/ADR-RES ovarian = tested on: NCI/ADR-RES ovarian
DU-145 prostate = tested on: DU-145 prostate
PC-3 prostate = tested on: PC-3 prostate
HOP-18 NSCLC = tested on: HOP-18 NSCLC
MDA-MB-231 breast = tested on: MDA-MB-231 breast
MCF7 breast = tested on: MCF7 breast

## CC(=O)N1CCN(C=S)CC1
SNB-75 CNS
  TGI: > 100 µM
RXF 393 renal
  TGI: > 100 µM
HCT-116 colon
  TGI: > 100 µM
NCI-H460 lung
  TGI: > 100 µM
OVCAR-8 ovarian
  TGI: > 100 µM
KM20L2 colon
  TGI: > 100 µM
LOX IMVI melanoma
  TGI: > 100 µM
HOP-92 NSCLC
  TGI: > 100 µM
UACC-62 melanoma
  TGI: > 100 µM
OVCAR-4 ovarian
  TGI: > 100 µM
SK-MEL-28 melanoma
  TGI: > 100 µM
SK-OV-3 ovarian
  TGI: > 100 µM
EKVX NSCLC
  TGI: > 100 µM
NCI-H522 lung
  TGI: > 100 µM
786-0 renal
  TGI: > 100 µM
HCT-15 colon
  TGI: > 100 µM
SF-268 CNS
  TGI: > 100 µM
UO-31 renal
  TGI: > 100 µM
HOP-62 NSCLC
  TGI: > 100 µM
DMS 273 small cell lung
  TGI: > 100 µM
TK-10 renal
  TGI: > 100 µM
SNB-19 CNS
  TGI: > 100 µM
SF-295 CNS
  TGI: > 100 µM
COLO 205 colon
  TGI: > 100 µM
HT29 colon
  TGI: > 100 µM
MALME-3M melanoma
  TGI: > 100 µM
CAKI-1 renal
  TGI: > 100 µM
DMS 114 small cell lung
  TGI: > 100 µM
XF 498 CNS
  TGI: > 100 µM
SK-MEL-5 melanoma
  TGI: > 100 µM
MOLT-4 leukemia
  TGI: > 100 µM
A549 NSCLC
  TGI: > 100 µM
DLD-1 colon
  TGI: > 100 µM
RXF-631 renal
  TGI: > 100 µM
A498 renal
  TGI: > 100 µM
OVCAR-3 ovarian
  TGI: > 100 µM
U251 CNS
  TGI: > 100 µM
M19-MEL melanoma
  TGI: > 100 µM
ACHN renal
  TGI: > 100 µM
HL-60(TB) leukemia
  TGI: > 100 µM
HCC-2998 colon
  TGI: > 100 µM
UACC-257 melanoma
  TGI: > 100 µM
K-562 leukemia
  TGI: > 100 µM
NCI-H23 lung
  TGI: > 100 µM
SNB-78 CNS
  TGI: > 100 µM
KM12 colon
  TGI: > 100 µM
SN12C renal
  TGI: > 100 µM
LXFL 529 NSCLC
  TGI: > 100 µM
SW-620 colon
  TGI: > 100 µM
RPMI-8226 leukemia
  TGI: > 100 µM
CCRF-CEM leukemia
  TGI: > 100 µM
NCI-H226 lung
  TGI: > 100 µM
M14 melanoma
  TGI: > 100 µM
IGROV1 ovarian
  TGI: > 100 µM
SR leukemia
  TGI: > 100 µM
SF-539 CNS
  TGI: > 100 µM
OVCAR-5 ovarian
  TGI: > 100 µM

## CCCCCCCCC(=O)NCCN(CCN)C(=O)CCCCCCCC
SNB-75 CNS
  TGI: 15.2 µM
BT-549 breast
  TGI: 22.8 µM
RXF 393 renal
  TGI: 34.1 µM
HCT-116 colon
  TGI: 8.02 µM
NCI-H460 lung
  TGI: 19.7 µM
OVCAR-8 ovarian
  TGI: 26.8 µM
KM20L2 colon
  TGI: 9.55 µM
HS 578T breast
  TGI: 24 µM
LOX IMVI melanoma
  TGI: 9.06 µM
HOP-92 NSCLC
  TGI: 37.1 µM
UACC-62 melanoma
  TGI: 21.9 µM
OVCAR-4 ovarian
  TGI: 16.2 µM
SK-MEL-28 melanoma
  TGI: 30.5 µM
SK-OV-3 ovarian
  TGI: 29.9 µM
EKVX NSCLC
  TGI: 36.2 µM
NCI-H522 lung
  TGI: 7.21 µM
786-0 renal
  TGI: 12.4 µM
HCT-15 colon
  TGI: 10.3 µM
SF-268 CNS
  TGI: 17.5 µM
UO-31 renal
  TGI: 26.6 µM
HOP-62 NSCLC
  TGI: 30.6 µM
DMS 273 small cell lung
  TGI: 6.65 µM
TK-10 renal
  TGI: 30 µM
SNB-19 CNS
  TGI: 17.7 µM
SF-295 CNS
  TGI: 10.5 µM
COLO 205 colon
  TGI: 6.72 µM
HT29 colon
  TGI: 7.15 µM
MDA-MB-435
  TGI: 29.7 µM
MALME-3M melanoma
  TGI: 33.6 µM
CAKI-1 renal
  TGI: 32.9 µM
DMS 114 small cell lung
  TGI: 10.1 µM
XF 498 CNS
  TGI: 5.43 µM
SK-MEL-5 melanoma
  TGI: 26.4 µM
MOLT-4 leukemia
  TGI: 8.57 µM
A549 NSCLC
  TGI: 29.9 µM
DLD-1 colon
  TGI: 10.4 µM
T-47D breast
  TGI: 32.9 µM
RXF-631 renal
  TGI: 13 µM
A498 renal
  TGI: 43.8 µM
OVCAR-3 ovarian
  TGI: 30.9 µM
U251 CNS
  TGI: 9.26 µM
M19-MEL melanoma
  TGI: 10.6 µM
ACHN renal
  TGI: 19.2 µM
HL-60(TB) leukemia
  TGI: 5.32 µM
HCC-2998 colon
  TGI: 24.3 µM
UACC-257 melanoma
  TGI: 33.7 µM
K-562 leukemia
  TGI: 8.27 µM
NCI-H23 lung
  TGI: 32.2 µM
MDA-N
  TGI: 11.6 µM
SNB-78 CNS
  TGI: 23.4 µM
KM12 colon
  TGI: 6.01 µM
SK-MEL-2 melanoma
  TGI: 30.1 µM
NCI/ADR-RES ovarian
  TGI: 31.1 µM
SN12C renal
  TGI: 24.7 µM
LXFL 529 NSCLC
  TGI: 7.89 µM
DU-145 prostate
  TGI: 27.9 µM
SW-620 colon
  TGI: 6.31 µM
RPMI-8226 leukemia
  TGI: 6.25 µM
CCRF-CEM leukemia
  TGI: 8.19 µM
NCI-H226 lung
  TGI: 37.1 µM
M14 melanoma
  TGI: 22 µM
IGROV1 ovarian
  TGI: 19.5 µM
PC-3 prostate
  TGI: 25 µM
HOP-18 NSCLC
  TGI: 31 µM
SR leukemia
  TGI: 13.8 µM
MDA-MB-231 breast
  TGI: 10.3 µM
MCF7 breast
  TGI: 17.5 µM
SF-539 CNS
  TGI: 15.3 µM
OVCAR-5 ovarian
  TGI: 30.5 µM

Reference: PubChem BioAssay (NCI)
